Numbers after ± are expanded uncertainties.
Conditions: Liquid, Rate of evaporation

Structure (SMILES)	vapor or sublimation pressure (523.15 K) [kPa]	vapor or sublimation pressure (548.15 K) [kPa]	vapor or sublimation pressure (573.15 K) [kPa]	vapor or sublimation pressure (598.15 K) [kPa]	vapor or sublimation pressure (623.15 K) [kPa]	vapor or sublimation pressure (463.15 K) [kPa]	vapor or sublimation pressure (483.15 K) [kPa]	vapor or sublimation pressure (503.15 K) [kPa]	vapor or sublimation pressure (543.15 K) [kPa]
OC[C@@H](O)[C@@H](O)[C@H](O)[C@@H](O)CO [D-sorbitol]	1.31 ± 0.1	4.49 ± 0.35	12.3 ± 1	30 ± 2.3	65 ± 5	–	–	–	–
OCC(O)CO [glycerol]	34.5 ± 2.7	–	–	–	–	3.85 ± 0.3	8.64 ± 0.67	17.9 ± 1.4	62.6 ± 4.8
